Experimental data reported in patent US20170224654A1, “PHARMACEUTICAL COMPOSITIONS AND METHODS FOR COUNTERING CHEMOTHERAPY INDUCED CARDIOTOXICITY” (Stem Cell Theranostics, Inc., priority 2016, published 2017).

Key:
TOPOIIα = molecular target: T1, TOPOIIα (Homo sapiens, UniProt P11388); test: kDNA decatenation assay; assay type: biochemical
T1 construct: purchased Inspiralis

TOPOIIβ = molecular target: T2, TOPOIIβ (Homo sapiens, UniProt Q02880); test: kDNA decatenation assay; assay type: biochemical
T2 construct: purchased Inspiralis

[1] = tested on: TOPOII enzymes (TOPOIIα and TOPOIIβ); test: kDNA decatenation assay, TOPOIIα and TOPOIIβ jointly; assay type: biochemical; details: discussion of Table 1
Experimental: 200 ng of kinetoplast DNA (kDNA) was incubated with one enzymatic unit of TOPOIIα or TOPOIIβ enzyme (Inspiralis) and with various concentrations of MYR or DEX at 37° C. for 30 min. The reaction was then separated on 1% agarose gel for visualization of decatenated DNA (bottom band). The efficiency of catalytic inhibition was quantified by measuring the relative intensity of the band.

[2] = tested on: Doxorubicin treated human iPSC-derived cardiomyocytes; test: iPSC-CM protection of MYR analogs against doxorubicin; assay type: cell-based; details: discussion of Table 1
[3] = tested on: MDA-MB-231 breast cancer cells; test: Cell viability with doxorubicin (CellTiter-Glo); assay type: cell-based; details: co-treated with increasing concentrations of doxorubicin, 72 hours
[4] = tested on: cardiomyocytes derived from human induced pluripotent stem cells; test: Doxorubicin-induced mitochondrial toxicity (TMRM-negative cells), 48 hours; assay type: cell-based; details: 1 μM doxorubicin, KAE 17 μM, AMB 0.76 μM, MES 10 μM, NAC 50 μM, Dex 160 μM, VIT 115 μM
Experimental: Following treatment, the samples were incubated with a tetramethylrhodamine methyl ester (TMRM) dye to indicate mitochondrial health, and a second dye to identify cell nuclei.

A549 cells (lung cancer) = test: Cell viability with doxorubicin (CellTiter-Glo); assay type: cell-based; details: co-treated with increasing concentrations of doxorubicin, 72 hours
Experimental: A549 cells (lung cancer) were cultured for 1 day before performing experiments. […] XLFit was used for curve fitting.

[5] = tested on: induced pluripotent stem cell-derived cardiomyocytes; test: Long term toxicity on electrophysiology (active electrodes, MEA); assay type: cell-based; details: various concentrations, at least 5 days
Experimental: Samples were either mock-treated with 0.1% DMSO, or treated with various concentrations of the indicated drug. Following treatment, the percentage of active electrodes in each sample was measured for at least 5 days. Percentage of active electrodes was quantified and graphed in a time course.

[6] = tested on: Human iPSC-derived cardiomyocytes; test: Cytotoxicity of MYR analogs to cardiomyocytes; details: for cytotoxicity / toxic effects to cardiomyocytes (in words): at or below 100 μM as stated
[7] = tested on: cardiomyocytes derived from human induced pluripotent stem cells; test: Doxorubicin-induced apoptosis (TUNEL), 48 hours; assay type: cell-based; details: 1 μM doxorubicin, VIT 115 μM, Dex 160 μM, AMB 0.76 μM, NAC 50 μM, KAE 17 μM, MES 10 μM
Experimental: Following treatment, the samples were incubated with a TUNEL dye to indicate apoptosis-positive cells, and a second dye to identify cell nuclei.

[8] = tested on: human induced pluripotent stem cell-derived cardiomyocytes; test: Long-term mitochondrial health (TMRM), 7 days; assay type: cell-based; details: 1 μM doxorubicin alone or with dexrazoxane or vitexin
Experimental: Following treatment, the samples were incubated with a tetramethylrhodamine methyl ester (TMRM) dye to indicate mitochondrial health. […] Representative images are presented for each sample, wherein loss of TMRM signal represents mitochondrial toxicity.

[9] = tested on: human induced pluripotent stem cell-derived cardiomyocytes; test: Electrophysiological activity with doxorubicin (active electrodes, MEA); assay type: cell-based; details: for decrease in the number of active electrodes: 24 hours
Experimental: Samples were either mock-treated with 0.1% DMSO, treated with 1 μM doxorubicin, or co-treated with 1 μM doxorubicin and various concentrations of vitexin (e.g., 11.6 μM, 37 μM, or 116 μM). Following treatment, the percentage of active electrodes in each sample was measured for 72 hours. Percentage of active electrodes was quantified and graphed in a time course (FIG. 28A). The average number of active electrodes per well was quantified and graphed at 30 hours after the treatment (FIG. 28B, n=6, standard deviation is shown as error bars).

[10] = tested on: induced pluripotent stem cell-derived cardiomyocytes; test: Acute toxicity on electrophysiology (MEA beat period, field potential duration); assay type: cell-based; details: lower drug concentration, at least 20 minutes
Experimental: Samples were either mock-treated with 0.1% DMSO, or treated with increasing concentrations of the indicated drug for at least 20 minutes. Cardiomyocytes were treated with the hERG potassium channel blocker E4031 as a control. Following treatment, the beat period and field potential duration (FPD) were measured in each sample using the MEA.

patient = test: Patient treatment examples (echocardiogram / electrocardiogram); assay type: in vivo, human
Experimental: A patient, with a history of heart disease, is diagnosed with breast cancer. Due to an increased risk for heart failure, the patient is unable to receive the standard treatment regimen of doxorubicin, which is known to induce cardiotoxicity. Instead, the caregiver administers a co-formulation of doxorubicin (10 mg) and vitexin (100 mg). An echocardiogram is performed and blood flow rate is measured to determine if the therapy has a cardiotoxic effect in the patient.
A patient is diagnosed with liver cancer. […] The patient presents with a 20 ms QT prolongation. […] The patient is able to continue receiving treatment over several weeks after which a tissue biopsy is performed to confirm the liver cancer has been eradicated.
A patient is diagnosed with stage II lung cancer, and presents with bradycardia. Due to an increased risk for heart failure, the patient is unable to receive the standard treatment regimen of doxorubicin, which is known to affect cardiac contraction and induce bradycardia. Instead, the caregiver administers a co-formulation of doxorubicin (10 mg) and myricetin (100 mg). An electrocardiogram is used to monitor the patient's heart rate. […] The lung cancer is down-staged to stage 1, and the cancer is successfully removed with surgery.
A patient is diagnosed with stage II lung cancer, and presents with bradycardia. Due to an increased risk for heart failure, the patient is unable to receive the standard treatment regimen of doxorubicin, which is known to affect cardiac contraction and induce bradycardia. Instead, the caregiver administers myricetin (100 mg) 24 hours before administration of doxorubicin (10 mg). An electrocardiogram is used to monitor the patient's heart rate. […] The lung cancer is down-staged to stage 1, and the cancer is successfully removed with surgery.

T2 sequence (Q02880 whole entry): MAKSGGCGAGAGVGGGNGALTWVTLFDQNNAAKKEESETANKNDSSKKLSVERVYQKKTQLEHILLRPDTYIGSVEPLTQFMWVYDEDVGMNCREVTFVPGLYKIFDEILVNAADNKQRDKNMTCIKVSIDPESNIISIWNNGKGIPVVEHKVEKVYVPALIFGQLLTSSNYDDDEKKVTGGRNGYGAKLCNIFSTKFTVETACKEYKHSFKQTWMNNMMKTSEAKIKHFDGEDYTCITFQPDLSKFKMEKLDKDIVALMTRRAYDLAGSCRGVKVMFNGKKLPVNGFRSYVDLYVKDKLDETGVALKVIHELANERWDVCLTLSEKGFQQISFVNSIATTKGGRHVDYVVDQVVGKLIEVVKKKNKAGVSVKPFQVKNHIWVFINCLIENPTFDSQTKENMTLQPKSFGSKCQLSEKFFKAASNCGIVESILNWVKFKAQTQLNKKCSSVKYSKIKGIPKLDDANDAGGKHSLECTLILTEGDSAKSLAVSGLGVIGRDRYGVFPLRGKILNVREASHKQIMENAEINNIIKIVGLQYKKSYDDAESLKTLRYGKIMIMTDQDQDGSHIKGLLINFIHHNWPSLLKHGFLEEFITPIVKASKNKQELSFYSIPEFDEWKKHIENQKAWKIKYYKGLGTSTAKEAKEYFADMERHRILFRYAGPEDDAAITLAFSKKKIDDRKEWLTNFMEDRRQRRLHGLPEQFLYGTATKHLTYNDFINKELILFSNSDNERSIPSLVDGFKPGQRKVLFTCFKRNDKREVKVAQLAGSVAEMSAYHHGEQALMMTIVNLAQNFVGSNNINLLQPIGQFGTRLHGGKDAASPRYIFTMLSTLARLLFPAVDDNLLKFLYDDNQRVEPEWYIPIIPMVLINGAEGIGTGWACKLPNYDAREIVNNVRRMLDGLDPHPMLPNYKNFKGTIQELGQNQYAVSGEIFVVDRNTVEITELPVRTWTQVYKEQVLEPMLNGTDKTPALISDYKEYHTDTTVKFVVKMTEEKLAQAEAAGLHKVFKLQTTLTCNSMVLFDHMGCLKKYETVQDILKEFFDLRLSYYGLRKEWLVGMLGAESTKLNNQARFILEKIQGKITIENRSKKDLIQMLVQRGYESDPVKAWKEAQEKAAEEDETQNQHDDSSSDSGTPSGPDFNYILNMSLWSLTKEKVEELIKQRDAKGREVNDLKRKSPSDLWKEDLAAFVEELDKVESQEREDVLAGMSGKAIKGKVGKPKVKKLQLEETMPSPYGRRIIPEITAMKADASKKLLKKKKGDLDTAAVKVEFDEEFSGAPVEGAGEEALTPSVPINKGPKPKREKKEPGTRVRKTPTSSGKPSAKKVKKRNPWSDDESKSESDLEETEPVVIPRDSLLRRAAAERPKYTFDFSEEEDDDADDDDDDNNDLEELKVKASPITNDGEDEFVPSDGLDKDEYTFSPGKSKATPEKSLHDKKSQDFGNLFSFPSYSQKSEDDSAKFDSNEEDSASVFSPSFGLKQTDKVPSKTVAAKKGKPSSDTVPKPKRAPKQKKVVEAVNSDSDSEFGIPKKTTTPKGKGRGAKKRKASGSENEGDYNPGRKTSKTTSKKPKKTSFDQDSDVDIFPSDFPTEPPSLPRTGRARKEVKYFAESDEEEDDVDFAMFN
T1 sequence (P11388 whole entry): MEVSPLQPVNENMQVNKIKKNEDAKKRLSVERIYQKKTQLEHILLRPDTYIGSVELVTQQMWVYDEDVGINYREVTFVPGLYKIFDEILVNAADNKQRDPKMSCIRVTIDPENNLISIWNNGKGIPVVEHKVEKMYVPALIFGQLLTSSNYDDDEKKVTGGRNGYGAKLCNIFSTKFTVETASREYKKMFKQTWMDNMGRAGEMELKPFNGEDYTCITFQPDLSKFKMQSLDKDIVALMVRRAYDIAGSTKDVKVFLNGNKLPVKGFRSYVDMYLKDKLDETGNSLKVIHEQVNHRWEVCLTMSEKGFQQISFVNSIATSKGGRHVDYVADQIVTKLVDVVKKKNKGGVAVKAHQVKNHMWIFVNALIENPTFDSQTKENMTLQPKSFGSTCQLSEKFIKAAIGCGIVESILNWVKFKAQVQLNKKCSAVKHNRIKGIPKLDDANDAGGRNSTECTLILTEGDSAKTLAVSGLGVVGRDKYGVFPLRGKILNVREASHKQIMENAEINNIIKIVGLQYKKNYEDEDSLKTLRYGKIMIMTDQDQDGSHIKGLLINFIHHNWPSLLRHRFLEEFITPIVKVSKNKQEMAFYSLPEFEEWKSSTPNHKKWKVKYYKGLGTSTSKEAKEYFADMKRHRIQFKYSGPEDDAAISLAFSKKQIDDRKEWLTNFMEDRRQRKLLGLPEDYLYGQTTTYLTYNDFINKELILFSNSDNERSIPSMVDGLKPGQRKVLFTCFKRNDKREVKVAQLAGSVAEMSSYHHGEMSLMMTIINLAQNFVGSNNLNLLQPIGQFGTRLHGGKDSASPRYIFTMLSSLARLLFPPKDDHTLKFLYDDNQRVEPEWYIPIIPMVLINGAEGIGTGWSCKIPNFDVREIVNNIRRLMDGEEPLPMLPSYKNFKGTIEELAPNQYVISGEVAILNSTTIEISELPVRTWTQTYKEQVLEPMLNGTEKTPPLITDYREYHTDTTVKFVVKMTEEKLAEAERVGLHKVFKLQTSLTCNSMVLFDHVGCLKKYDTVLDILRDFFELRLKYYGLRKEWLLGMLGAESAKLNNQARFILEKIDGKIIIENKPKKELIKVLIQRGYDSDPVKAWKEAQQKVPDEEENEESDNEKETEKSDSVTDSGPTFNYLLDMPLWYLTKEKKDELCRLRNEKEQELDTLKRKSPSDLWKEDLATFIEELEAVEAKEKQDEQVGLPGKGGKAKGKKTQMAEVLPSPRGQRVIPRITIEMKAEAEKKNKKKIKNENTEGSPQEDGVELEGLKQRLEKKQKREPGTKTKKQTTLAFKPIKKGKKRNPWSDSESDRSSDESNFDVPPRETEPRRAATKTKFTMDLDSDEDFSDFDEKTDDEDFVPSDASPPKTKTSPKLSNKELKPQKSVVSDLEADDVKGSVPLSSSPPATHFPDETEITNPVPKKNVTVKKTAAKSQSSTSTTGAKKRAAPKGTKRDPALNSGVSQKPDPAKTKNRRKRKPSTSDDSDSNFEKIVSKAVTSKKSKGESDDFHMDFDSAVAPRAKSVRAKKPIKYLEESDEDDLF

| Compound | TOPOIIα Inhibition (TOPOIIα) | TOPOIIβ Inhibition (TOPOIIβ) | TOPOII (TOPOIIα and TOPOIIβ) inhibition (in words) [1] | cardioprotection (in words) [2] | percentage of cell death vs doxorubicin in the absence of a protective agent [3] | decrease in mitochondrial toxicity vs doxorubicin alone [4] | percentage of cell death vs doxorubicin in the absence of a protective agent (A549 cells (lung cancer)) | number of active electrodes relative to the mock-treated sample (in words) [5] | Toxicity ([6]; 100 μM) | cytotoxicity / toxic effects to cardiomyocytes (in words) ([6]; listed as Kaempferol) | cytotoxicity / toxic effects to cardiomyocytes (in words) ([6]; listed as kaempferol) | decrease in apoptosis vs doxorubicin alone [7] | mitochondrial toxicity / protection (TMRM-positive cells) [8] | decrease in the number of active electrodes ([9]; 1 μM doxorubicin and 11.6 μM vitexin) [%] | decrease in the number of active electrodes ([9]; 1 μM doxorubicin and 37 μM vitexin) [%] | decrease in the number of active electrodes ([9]; 1 μM doxorubicin and 116 μM vitexin) [%] | average number of active electrodes ([9]; 1 μM doxorubicin and 116 μM vitexin, 30 hours) | beat period or field potential duration, as compared to control samples [10] | QT prolongation (in words) (patient; doxorubicin (5 mg/mL) given with the protective agent) | cardiac dysfunction in the patient (patient; protective agent 100 mg co-formulated with, or 24 hours before, doxorubicin 10 mg) |
| --- | --- | --- | --- | --- | --- | --- | --- | --- | --- | --- | --- | --- | --- | --- | --- | --- | --- | --- | --- | --- |
| O=c1c(O)c(-c2ccc(O)cc2)oc2cc(O)cc(O)c12 [Compound 7, 3,5,7,4′-tetrahydroxyflavone] | − | − | did not exhibit any inhibitory effect | moderate level of cardioprotection | no significant difference | at least 60% | no significant difference | no observable decrease | − | without some level of cytotoxicity at 100 μM | did not show toxic effects below 100 μM |  |  |  |  |  |  |  |  |  |
| O=c1cc(-c2ccc(O)cc2)oc2c([C@@H]3O[C@H](CO)[C@@H](O)[C@H](O)[C@H]3O)c(O)cc(O)c12 [vitexin] |  |  |  |  | no significant difference |  | no significant difference | no observable decrease |  |  |  | at least 60% | improved long term mitochondrial protection | ~50 | ~25 | ~0 | about 10 active electrodes | no appreciable difference | no signs of QT prolongation | no indication of cardiac dysfunction |
